Source: patent publication US20070253942A1, “Lectin-directed prodrug delivery system” (Isis Innovation Limited, priority 2001, published 2007)

Assay: Tritosomal stability of p-nitrophenyl glycosides
Format: in vitro ADME, rat
Details: for Readings from spectrometer, absorbance at 410 nm, Assay 1 / Readings from spectrometer, absorbance at 410 nm, Assay 2: rat, pH 5.5; for tritosomal cleavage (production of p-nitrophenol, absorbance at 410 nm): substrate 31.0 mg/ml in DMSO, 37° C., after 20 hours
Text: One essential facet of the LEAPT concept is that the rhamnoside-capped prodrugs will be cleaved only by the selectively delivered naringinase construct. To ensure that this is possible, a lysosomal tritosome preparation was used to assess the potential cleavage of α-L-rhamnopyranosides by enzymes in the hepatocytes. p-Nitrophenyl α-L-rhamnopyranoside was used as a chromogenic prodrug mimic. If there are enzymes present in the hepatocytes capable of cleaving α-L-rhamnopyranosidic linkages, this would be detected over an extended assay by the production of p-nitrophenol. Assay conditions based on those used in 2.2.4 were recreated with the used of pNP-α-L-Rha instead of the protease substrate. The mixture was incubated at 37° C. and the absorbance at 410 nm recorded every 5 minutes.
With the concentration of pNP-α-L-Rha increased ten-fold, the tritosomal stability of rhamnopyranosides was reassessed.
Further assessments of the glycosidic enzymes present in the tritosomal preparation were required to allow further design of prodrugs. An assay equivalent to 2.8.7 was used to assess β-D-galactopyranosidic activity.
Further assessments of the glycosidic enzymes present in the tritosomal preparation were required to allow further design of prodrugs. An assay equivalent to 2.3.7 was used to assess β-D-glucopyranosidic activity.
A stock solution of p-nitrophenyl α-L-rhamnopyranoside in DMSO (3.1 mg/ml, equivalent to BzPheValArgNap solution) was used in an assay equivalent to 2.8.4.
As no activity against α-L-rhamnopyranosides was detected in the previous assay, a higher concentration of pNPαL-Rha (31.0 mg/ml) in DMSO was used in an otherwise identical assay. In addition, the cuvette was incubated at 37° C. for 20 hours and the absorbance reading repeated.
A stock solution of p-nitrophenyl β-D-galactopyranoside in DMSO (31.0 mg/ml) was used in an assay equivalent to 2.8.7. In addition, the cuvette was incubated at 37° C. for 20 hours and the absorbance reading repeated.
A stock solution of p-nitrophenyl β-D-glucopyranoside in DMSO (31.0 mg/ml) was used in an assay equivalent to 2.8.7. In addition, the cuvette was incubated at 37° C. for 20 hours and the absorbance reading repeated.

With C[C@@H]1O[C@@H](Oc2ccc([N+](=O)[O-])cc2)[C@H](O)[C@H](O)[C@H]1O [pNP-α-L-Rha, p-Nitrophenyl α-L-rhamnopyranoside] the “Readings from spectrometer, absorbance at 410 nm, Assay 1” value (shortened to “Readings from spectrometer … Assay 1”) (0 min, 0.093 mg/ml) was 0.158, the “Readings from spectrometer, absorbance at 410 nm, Assay 2” value (“Readings from spectrometer … Assay 2” below) (0 min, 0.093 mg/ml) was 0.160 and the “Readings from spectrometer … Assay 1” value (0 min, 0.93 mg/ml) was 0.173. The “Readings from spectrometer … Assay 2” value (0 min, 0.93 mg/ml) was 0.172, the “Readings from spectrometer … Assay 1” value (5 min, 0.093 mg/ml) was 0.155 and the “Readings from spectrometer … Assay 2” value (5 min, 0.093 mg/ml) was 0.159. For the same compound, the “Readings from spectrometer … Assay 1” value (5 min, 0.93 mg/ml) was 0.169, the “Readings from spectrometer … Assay 2” value (5 min, 0.93 mg/ml) was 0.170 and the “Readings from spectrometer … Assay 1” value (10 min, 0.093 mg/ml) was 0.153. For the same compound, the “Readings from spectrometer … Assay 2” value (10 min, 0.093 mg/ml) was 0.159, the “Readings from spectrometer … Assay 1” value (10 min, 0.93 mg/ml) was 0.166 and the “Readings from spectrometer … Assay 2” value (10 min, 0.93 mg/ml) was 0.167. The “Readings from spectrometer … Assay 1” value (15 min, 0.093 mg/ml) was 0.151, the “Readings from spectrometer … Assay 2” value (15 min, 0.093 mg/ml) was 0.158 and the “Readings from spectrometer … Assay 1” value (15 min, 0.93 mg/ml) was 0.165. For the same compound, the “Readings from spectrometer … Assay 2” value (15 min, 0.93 mg/ml) was 0.166, the “Readings from spectrometer … Assay 1” value (20 min, 0.093 mg/ml) was 0.150 and the “Readings from spectrometer … Assay 2” value (20 min, 0.093 mg/ml) was 0.159. The “Readings from spectrometer … Assay 1” value (20 min, 0.93 mg/ml) was 0.162, the “Readings from spectrometer … Assay 2” value (20 min, 0.93 mg/ml) was 0.164 and the “Readings from spectrometer … Assay 1” value (25 min, 0.093 mg/ml) was 0.150. For the same compound, the “Readings from spectrometer … Assay 2” value (25 min, 0.093 mg/ml) was 0.157, the “Readings from spectrometer … Assay 1” value (25 min, 0.93 mg/ml) was 0.161 and the “Readings from spectrometer … Assay 2” value (25 min, 0.93 mg/ml) was 0.165. For the same compound, the “Readings from spectrometer … Assay 1” value (30 min, 0.093 mg/ml) was 0.149, the “Readings from spectrometer … Assay 2” value (30 min, 0.093 mg/ml) was 0.157 and the “Readings from spectrometer … Assay 1” value (30 min, 0.93 mg/ml) was 0.158. The “Readings from spectrometer … Assay 2” value (30 min, 0.93 mg/ml) was 0.163, the “Readings from spectrometer … Assay 1” value (20 h, 0.93 mg/ml) was 0.138 and the “Readings from spectrometer … Assay 2” value (20 h, 0.93 mg/ml) was 0.131.

For O=[N+]([O-])c1ccc(O[C@@H]2O[C@H](CO)[C@@H](O)[C@H](O)[C@H]2O)cc1 [pNP-β-D-Glc, p-nitrophenyl β-D-glucopyranoside], the “tritosomal cleavage (production of p-nitrophenol, absorbance at 410 nm)” value was “significant amount of p-nitrophenol had been released”.

In the case of O=[N+]([O-])c1ccc(O[C@@H]2O[C@H](CO)[C@H](O)[C@H](O)[C@H]2O)cc1 [pNP-β-D-Gal, p-nitrophenyl β-D-galactopyranoside], the “tritosomal cleavage (production of p-nitrophenol, absorbance at 410 nm)” value is reported as “significant amount of p-nitrophenol had been released”.
